Source: US9878978B2, “Processes for the diazotization of 2,5-dichloroanilines” (priority 2013, dated 2018)

Assays:
[1] = Solubility study of 2,5-dichloroaniline in different solvents; format: physicochemical
Procedure: Three different commercially available sources of 2,5-dichloroaniline (Sigma, Acros, and AlfaAesar) were evaluated for solubility in several different solvents under the specific conditions reported in Table 5-A. The 2,5-dichloroaniline obtained from Sigma was evaluated with and without milling.
In contrast, it was insoluble in concentrated hydrochloric acid, 75% sulfuric acid (weight/weight sulfuric acid/water), and formic acid at all temperatures tested. Although 2,5-dichloroaniline was soluble in concentrated sulfuric acid at 80° C., solubility at the lower temperatures tested still was limited. Milling the 2,5-dichloroaniline did appear to improve solubility in concentrated sulfuric acid.
When sulfuric acid was added to the milled or unmilled 2,5-dichloroaniline, the 2,5-dichloroaniline clumped up and formed a “crust” on itself. It is hypothesized that this crust is a 2,5-dichloroaniline sulfate salt that forms and creates a salt capsule enclosing the 2,5-dichloroaniline thereby further reducing 2,5-dichloroaniline solubility. With vigorous stirring by stir bar or paddle-equipped stir rod, the mixture containing the “crusted” 2,5-dichloroaniline typically can be converted to a slurry of the 2,5-dichloroaniline sulfate salt.

[2] = 2,5-Dichlorophenol stability at 120° C. with or without sodium nitrite and sulfamic acid; format: physicochemical; details: 120° C. in the various solvents, without sodium nitrite
Procedure: In this study, 2,5-dichlorophenol was stirred at 120° C. in the presence or absence of sodium nitrite and/or sulfamic acid. The 2,5-dichlorophenol itself was stable and either dissolved or melted in the various solvents at 120° C. Upon addition of sodium nitrite to the solution and heating at 120° C. for 30 minutes, all of the solutions had some byproduct formation. The experiments were repeated with sulfamic acid added at 1.1 times the sodium nitrite equivalents with heating to 120° C. for 30 minutes as before. Byproduct formation was reduced, and only the solutions containing sulfuric acid had byproducts.

[3] = acetic acid/sulfuric acid reaction mixture stored at room temperature for two weeks

Nc1cc(Cl)ccc1Cl [2,5-dichloroaniline]
readily soluble: Solubility ([1]; acetic acid, all temperatures) | Solubility ([1]; trifluoroacetic acid, all temperatures)
soluble: Solubility ([1]; concentrated sulfuric acid, 80° C.)
insoluble: Solubility ([1]; 75% sulfuric acid (weight/weight sulfuric acid/water), all temperatures tested) | Solubility ([1]; concentrated hydrochloric acid, all temperatures tested) | Solubility ([1]; formic acid, all temperatures tested)
Soluble: Solubility ([1]; Acros, not milled, Conc. H2SO4, molarity 1.12, 25° C.) | Solubility ([1]; Acros, not milled, Conc. H2SO4, molarity 1.12, 80° C.) | Solubility ([1]; Acros, not milled, Conc. H2SO4, molarity 2.24, 80° C.) | Solubility ([1]; Acros, not milled, Glacial Acetic Acid, molarity 1.12, 10° C.) | Solubility ([1]; Acros, not milled, Glacial Acetic Acid, molarity 1.12, 25° C.) | Solubility ([1]; Acros, not milled, Glacial Acetic Acid, molarity 1.12, 80° C.) | Solubility ([1]; Acros, not milled, Glacial Acetic Acid, molarity 2.24, 10° C.) | Solubility ([1]; Acros, not milled, Glacial Acetic Acid, molarity 2.24, 25° C.) | Solubility ([1]; Acros, not milled, Glacial Acetic Acid, molarity 2.24, 80° C.) | Solubility ([1]; AlfaAesar, not milled, Conc. H2SO4, molarity 1.12, 80° C.) | Solubility ([1]; AlfaAesar, not milled, Glacial Acetic Acid, molarity 2.24, 10° C.) | Solubility ([1]; AlfaAesar, not milled, Glacial Acetic Acid, molarity 2.24, 25° C.) | Solubility ([1]; AlfaAesar, not milled, Glacial Acetic Acid, molarity 2.24, 80° C.) | Solubility ([1]; Sigma, milled, Conc. H2SO4, molarity 0.58, 10° C.) | Solubility ([1]; Sigma, milled, Conc. H2SO4, molarity 0.58, 25° C.) | Solubility ([1]; Sigma, milled, Conc. H2SO4, molarity 1.16, 10° C.) | Solubility ([1]; Sigma, milled, Conc. H2SO4, molarity 1.16, 25° C.) | Solubility ([1]; Sigma, milled, Conc. H2SO4, molarity 2.13, 10° C.) | Solubility ([1]; Sigma, milled, Conc. H2SO4, molarity 2.13, 25° C.) | Solubility ([1]; Sigma, milled, Glacial Acetic Acid, molarity 1.16, 10° C.) | Solubility ([1]; Sigma, milled, Glacial Acetic Acid, molarity 1.16, 25° C.) | Solubility ([1]; Sigma, milled, Glacial Acetic Acid, molarity 2.24, 10° C.) | Solubility ([1]; Sigma, milled, Glacial Acetic Acid, molarity 2.24, 25° C.) | Solubility ([1]; Sigma, not milled, Conc. H2SO4, molarity 2.24, 80° C.) | Solubility ([1]; Sigma, not milled, Glacial Acetic Acid, molarity 2.24, 25° C.) | Solubility ([1]; Sigma, not milled, Glacial Acetic Acid, molarity 2.24, 80° C.) | Solubility ([1]; Sigma, not milled, Trifluoracetic Acid, molarity 2.24, 10° C.) | Solubility ([1]; Sigma, not milled, Trifluoracetic Acid, molarity 2.24, 25° C.) | Solubility ([1]; Sigma, not milled, Trifluoracetic Acid, molarity 2.24, 80° C.)
Insoluble: Solubility ([1]; Sigma, not milled, 75% H2SO4, molarity 2.24, 10° C.) | Solubility ([1]; Sigma, not milled, 75% H2SO4, molarity 2.24, 25° C.) | Solubility ([1]; Sigma, not milled, 75% H2SO4, molarity 2.24, 80° C.) | Solubility ([1]; Sigma, not milled, Conc. H2SO4, molarity 2.24, 10° C.) | Solubility ([1]; Sigma, not milled, Conc. H2SO4, molarity 2.24, 25° C.) | Solubility ([1]; Sigma, not milled, Conc. HCl, molarity 2.24, 10° C.) | Solubility ([1]; Sigma, not milled, Conc. HCl, molarity 2.24, 25° C.) | Solubility ([1]; Sigma, not milled, Conc. HCl, molarity 2.24, 80° C.) | Solubility ([1]; Sigma, not milled, Formic Acid (88%), molarity 2.24, 10° C.) | Solubility ([1]; Sigma, not milled, Formic Acid (88%), molarity 2.24, 25° C.) | Solubility ([1]; Sigma, not milled, Formic Acid (88%), molarity 2.24, 80° C.)
Partial: Solubility ([1]; Acros, not milled, Conc. H2SO4, molarity 1.12, 10° C.) | Solubility ([1]; Acros, not milled, Conc. H2SO4, molarity 2.24, 10° C.) | Solubility ([1]; Acros, not milled, Conc. H2SO4, molarity 2.24, 25° C.) | Solubility ([1]; AlfaAesar, not milled, Conc. H2SO4, molarity 1.12, 10° C.) | Solubility ([1]; AlfaAesar, not milled, Conc. H2SO4, molarity 1.12, 25° C.)
limited: Solubility ([1]; concentrated sulfuric acid, lower temperatures tested)

Oc1cc(Cl)ccc1Cl [2,5-dichlorophenol]
stable: Stability [2]

N#[N+]c1cc(Cl)ccc1Cl [2,5-Dichlorobenzene diazonium, 2,5-dichlorobenzenediazonium]
no degradation: Degradation on storage [3]
